Data as given in PMC9221509, “Discovery of a Novel Antimicrobial Peptide, Temporin-PKE, from the Skin Secretion of Pelophylax kl. esculentus, and Evaluation of Its Structure-Activity Relationships” (Biomolecules, 2022).
≈ marks a conversion by molar mass, not a printed value. Where two headings read alike, the source gives them in different places. Non-standard residues stand in square brackets, D forms with d. Residues, ends and D or L forms follow the SMILES beside them. No end group written: not given here.

Experiments:
[1] = system: S. aureus (ATCC 6538); test: microbe, parasite or virus in culture; assay type: cell-based, Staphylococcus aureus; details: for MBC: ATCC 6538, 18 h; for MIC: ATCC 6538, 24 h
Description: (§1) The antimicrobial activities of peptides were evaluated against the Gram-positive bacteria, S. aureus (ATCC 6538), methicillin-resistant Staphylococcus aureus (MRSA) (NCTC 12493), Enterococcus faecalis (E. faecalis) (NCTC 12697); the Gram-negative bacteria, E. coli (ATCC CRM 8739), Klebsiella pneumoniae (K. pneumoniae) (ATCC 43816), Pseudomonas aeruginosa (P. aeruginosa) (ATCC CRM 9027); and the yeast, Candida albicans (C. albicans) (ATCC CRM 10231). Clinical isolates of MRSA (B042 V2E1 A), E. coli (ATCC BAA-2340), K. pneumoniae (ATCC BAA-1705), and P. aeruginosa (B004 V2S2 B) were also used to determine their antimicrobial activities. The suspension of microorganisms in the logarithmic growth phase with a specific final density (Gram-negative and Gram-positive bacteria: 5 × 10^5 CFU/mL; yeast: 1 × 10^6 CFU/mL) was incubated with different peptide concentrations from 1 µM to 512 µM at 37 °C for 24 h. PBS was used as the negative control, and norfloxacin and amphotericin B were selected as the positive control for bacteria and yeast, respectively. Since the Norfloxacin had weak activities against P. aeruginosa (B004 V2S2 B) and K. pneumoniae (ATCC BAA 1705), gentamicin was used as the positive control for these two bacterial strains. The absorbance of each well was obtained using a microplate reader (EL808, Biolise BioTek, Winooski, VT, USA) set at 550 nm wavelength. The MIC value was the lowest concentration of a peptide that inhibits visible bacterial growth. Once the MIC values were determined, an aliquot from the bacterial culture exposed to the peptide at or above its MIC value was inoculated on a Mueller Hinton agar (MHA) and was incubated at 37 for 18 h. The MBC value was the lowest concentration of a peptide that kills 99.9% of bacteria.

[2] = system: E. coli (ATCC CRM 8739); test: microbe, parasite or virus in culture; assay type: cell-based, Escherichia coli; details: for MBC: ATCC CRM 8739, 18 h; for MIC: ATCC CRM 8739, 24 h
Description: as §1

[3] = system: E. coli (ATCC BAA-2340); test: microbe, parasite or virus in culture; assay type: cell-based, Escherichia coli; details: for MBC: ATCC BAA-2340, 18 h; for MIC: ATCC BAA-2340, 24 h
Description: as §1

[4] = system: C. albicans (ATCC CRM 10231); test: organism not typed; assay type: cell-based, Candida albicans; details: for MBC: ATCC CRM 10231, 18 h; for MIC: ATCC CRM 10231, 24 h
Description: as §1

[5] = system: K. pneumoniae (ATCC 43816); assay type: cell-based, Klebsiella pneumoniae; details: ATCC 43816, 24 h
Description: as §1
According to the procedures in a previous article, the analysis of the sensitivity of the peptides was determined by measuring MIC values in the presence of different types of salts and 10% fetal bovine serum. MRSA (NCTC 12493) and K. pneumoniae (ATCC 43816) were selected as the subjects of these assays. Various salts at different concentrations, including 150 mM NaCl, 4.5 mM KCl, 6 μM NH4Cl, 1 mM MgCl2, […], […], and 10% serum (Gibco, Auckland, New Zealand), were added to the MHB medium for the examination of the MIC values which were determined as described in Section 2.7.

[6] = system: E. faecalis (NCTC 12697) biofilm; assay type: cell-based, Enterococcus faecalis; details: NCTC 12697, 24 h
Description: (§2) The anti-biofilm activities of the peptides against S. aureus (ATCC 6538), MRSA (NCTC 12493), E. faecalis (NCTC 12697), E. coli (ATCC CRM 8739), K. pneumoniae (ATCC 43816), and P. aeruginosa (ATCC CRM 9027), were evaluated. For the MBIC assay, 99 µL of bacterial suspension (5 × 10^5 CFU/mL) was mixed with 1 µL of serial dilutions (from 100 µM to 51,200 µM) of temporin-PKE and its analogues in a 96-well plate, and the plate was incubated in a moist shaking incubator at a speed of 200 rpm at 37 °C for 24 h. For the MBEC assay, 100 µL of bacterial suspension (5 × 10^5 CFU/mL) in each well was seeded in a new 96-well plate, and the plate was put into the same shaking incubator for 24 h incubation to allow biofilm formation on the well. After biofilm formation, the biofilm in the plate was washed with PBS twice. The PBS was aspirated between washes to remove planktonic bacterial cells. The washed biofilm in each well was treated with 100 µL of serial dilutions (from 1 µM to 512 µM) of the test peptides. Then, the plate was incubated in the same shaking incubator for another 24 h. After being washed by PBS twice and fixed with methanol, the biofilm in each well was incubated with 100 µL of 0.1% crystal violet for 30 min, and the stained biofilm was dissolved in 100 µL of glacial acidic acid after drying. The solutions were transferred to a new microplate, and the absorbance of each well was measured using a microplate reader (EL808, Biolise BioTek, Winooski, VT, USA) set to 595 nm wavelength. The MBIC was the minimum concentration of the peptide showing no biofilm formation. The MBEC is the lowest concentration of the peptide capable of eradicating the mature biofilms, which had no biofilm in the well.

[7] = system: S. aureus (ATCC 6538) biofilm; assay type: cell-based, Staphylococcus aureus; details: ATCC 6538, 24 h
Description: as §2

[8] = system: horse red blood cells; assay type: cell-based
Description: As a previous study described in detail, the haemolysis activity assays of peptides were conducted on defibrinated horse blood (TCS Biosciences Ltd., Buckingham, UK) with an erythrocyte suspension concentration of 2% (v/v). The 120 μL of peptide solution in a gradient concentration ranging from 1µM to 512 µM was mixed with the same volume of 2% horse red blood cell suspension, and the complex was incubated at 37 °C for 2 h. PBS and 0.1% Triton X-100 were chosen as the negative and positive control, respectively. After centrifugation at 900× g for 5 min, the absorbance of the supernatant was analysed using a microplate reader (EL808, Biolise BioTek, Winooski, VT, USA) set to a wavelength of 570 nm. The equation to calculate the haemolysis of the peptides is shown below: Haemolysis (%)=A−An/Ap−An×100% where A represents the absorbance of each treatment group, An represents the average absorbance of the negative control group, and Ap represents the average absorbance of the positive control group.

Row | Compound | MBC [1] | MIC [1] | MBC ([3]; read-out: MBC) | MBC ([4]; read-out: MBC) | MIC ([4]; read-out: MIC) | MIC against K. pneumoniae in the presence of 4 µM FeCl3 [5] | MIC against K. pneumoniae in the presence of 6 µM NH4Cl [5] | MIC against K. pneumoniae in the presence of 8 µM ZnCl2 [5] | MIC against K. pneumoniae in the presence of 1 mM MgCl2 [5] | MIC against K. pneumoniae in the presence of 2 mM CaCl2 [5] | MIC against K. pneumoniae in the presence of 4.5 mM KCl [5] | MIC against K. pneumoniae in the presence of 150 mM NaCl [5] | MIC against K. pneumoniae in the presence of 10% FBS [5] | MIC against K. pneumoniae, Negative [5] | MBIC [6] | MBIC [7] | HC50 [8] | HC50 ([8]; red cells of horse, 2 h) | MBC [2] | MIC [2] | also measured
1 | FLPLIIGALSSLLPKIF-NH2 [Temporin-PKE] | 2 µM | 2 µM | >512 µM | >512 µM | >512 µM | >512 µM | >512 µM | >512 µM | >512 µM | >512 µM | >512 µM | >512 µM | >512 µM | >512 µM | 32 µM | 2 µM | 6.58 µM | 6.58 µM | – | – | MBC ([2]; read-out: MBC): >512 µM; MIC ([2]; read-out: MIC): >512 µM; MIC ([3]; read-out: MIC): >512 µM
2 | CC[C@@H](C)[C@@H](NC(=O)[C@H](CCCCN)NC(=O)[C@@H]1CCCN1C(=O)[C@H](CC(C)C)NC(=O)[C@H](CC(C)C)NC(=O)[C@H](CO)NC(=O)[C@H](CO)NC(=O)[C@H](CC(C)C)NC(=O)[C@H](C)NC(=O)CNC(=O)[C@H](NC(=O)[C@H](NC(=O)[C@H](CC(C)C)NC(=O)[C@@H]1CCCN1C(=O)[C@H](CC(C)C)NC(=O)[C@@H](N)Cc1ccccc1)[C@H](C)CC)[C@H](C)CC)C(=O)N[C@@H](Cc1ccccc1)C(N)=O [Temporin-PKE-3i] (H-FLPL[dI][dI]GALSSLLPK[dI]F-NH2) | 32 µM (≈ 58.9 µg/mL) | 32 µM (≈ 58.9 µg/mL) | >512 µM | 256 µM (≈ 471 µg/mL) | – | >512 µM | >512 µM | >512 µM | >512 µM | >512 µM | >512 µM | >512 µM | >512 µM | >512 µM | 128 µM | 64 µM | – | 64.0 µM | – | – | MBC ([2]; read-out: MBC): >512 µM; MIC ([2]; read-out: MIC): >512 µM; MIC ([3]; read-out: MIC): >512 µM
3 | FLPKIIGKLSSKLPKIF-NH2 [Temporin-PKE-4K] | 32 µM | 32 µM | 64 µM | – | – | 16 µM | 16 µM | 16 µM | 64 µM | 128 µM | 16 µM | 64 µM | 64 µM | 16 µM | 256 µM | 32 µM | 1671 µM | 1671 µM | 4 µM | 4 µM | MIC ([3]; read-out: MIC): 32 µM; MBC [4]: 64 µM; MIC [4]: 64 µM
4 | FLPLIIGKLSSLLPKIF-NH2 [Temporin-PKE-2K] | 2 µM | 2 µM | – | >512 µM | >512 µM | 16 µM | 16 µM | 16 µM | 32 µM | 32 µM | 16 µM | 128 µM | 64 µM | 16 µM | 16 µM | 2 µM | – | 19.87 µM | 4 µM | 4 µM | MBC [3]: 8 µM; MIC [3]: 8 µM; HC50 relative to that of temporin-PKE [8]: 3 fold
5 | FLPLIIGALSSKLPKIF-NH2 [Temporin-PKE-K12] | 4 µM | 4 µM | – | >512 µM | >512 µM | 32 µM | 32 µM | 64 µM | 128 µM | 256 µM | 32 µM | 128 µM | 128 µM | 32 µM | 64 µM | 4 µM | 122.7 µM | 122.7 µM | 8 µM | 8 µM | MBC [3]: 16 µM; MIC [3]: 16 µM
6 | FLPKIIGKLSSLLPKIF-NH2 [Temporin-PKE-3K] | 2 µM | 2 µM | – | 64 µM | 32 µM | 16 µM | 4 µM | 4 µM | 16 µM | 16 µM | 4 µM | 16 µM | 16 µM | 4 µM | 4 µM | 2 µM | 87.47 µM | 87.47 µM | 2 µM | 2 µM | MBC [3]: 2 µM; MIC [3]: 2 µM
